Among the data in patent publication US20070021434A1, “NON-NUCLEOSIDE ANTI-HEPACIVIRUS AGENTS AND USES THEREOF” (Migenix Inc., priority 2005, published 2007) are IC50 values, retold here.

SMILES strings stand for the structures. Where only a bound is given, the exact number is not on record here.

The term IC50 denotes the concentration at which inhibition is half-maximal. Read a high IC50 as a need for much substance.

The assay deals with HCV RdRp (NS5B) (UniProt P26663). Format: biochemical, hepatitis C virus.
Sequence of HCV RdRp (NS5B) (P26663 whole entry, looked up): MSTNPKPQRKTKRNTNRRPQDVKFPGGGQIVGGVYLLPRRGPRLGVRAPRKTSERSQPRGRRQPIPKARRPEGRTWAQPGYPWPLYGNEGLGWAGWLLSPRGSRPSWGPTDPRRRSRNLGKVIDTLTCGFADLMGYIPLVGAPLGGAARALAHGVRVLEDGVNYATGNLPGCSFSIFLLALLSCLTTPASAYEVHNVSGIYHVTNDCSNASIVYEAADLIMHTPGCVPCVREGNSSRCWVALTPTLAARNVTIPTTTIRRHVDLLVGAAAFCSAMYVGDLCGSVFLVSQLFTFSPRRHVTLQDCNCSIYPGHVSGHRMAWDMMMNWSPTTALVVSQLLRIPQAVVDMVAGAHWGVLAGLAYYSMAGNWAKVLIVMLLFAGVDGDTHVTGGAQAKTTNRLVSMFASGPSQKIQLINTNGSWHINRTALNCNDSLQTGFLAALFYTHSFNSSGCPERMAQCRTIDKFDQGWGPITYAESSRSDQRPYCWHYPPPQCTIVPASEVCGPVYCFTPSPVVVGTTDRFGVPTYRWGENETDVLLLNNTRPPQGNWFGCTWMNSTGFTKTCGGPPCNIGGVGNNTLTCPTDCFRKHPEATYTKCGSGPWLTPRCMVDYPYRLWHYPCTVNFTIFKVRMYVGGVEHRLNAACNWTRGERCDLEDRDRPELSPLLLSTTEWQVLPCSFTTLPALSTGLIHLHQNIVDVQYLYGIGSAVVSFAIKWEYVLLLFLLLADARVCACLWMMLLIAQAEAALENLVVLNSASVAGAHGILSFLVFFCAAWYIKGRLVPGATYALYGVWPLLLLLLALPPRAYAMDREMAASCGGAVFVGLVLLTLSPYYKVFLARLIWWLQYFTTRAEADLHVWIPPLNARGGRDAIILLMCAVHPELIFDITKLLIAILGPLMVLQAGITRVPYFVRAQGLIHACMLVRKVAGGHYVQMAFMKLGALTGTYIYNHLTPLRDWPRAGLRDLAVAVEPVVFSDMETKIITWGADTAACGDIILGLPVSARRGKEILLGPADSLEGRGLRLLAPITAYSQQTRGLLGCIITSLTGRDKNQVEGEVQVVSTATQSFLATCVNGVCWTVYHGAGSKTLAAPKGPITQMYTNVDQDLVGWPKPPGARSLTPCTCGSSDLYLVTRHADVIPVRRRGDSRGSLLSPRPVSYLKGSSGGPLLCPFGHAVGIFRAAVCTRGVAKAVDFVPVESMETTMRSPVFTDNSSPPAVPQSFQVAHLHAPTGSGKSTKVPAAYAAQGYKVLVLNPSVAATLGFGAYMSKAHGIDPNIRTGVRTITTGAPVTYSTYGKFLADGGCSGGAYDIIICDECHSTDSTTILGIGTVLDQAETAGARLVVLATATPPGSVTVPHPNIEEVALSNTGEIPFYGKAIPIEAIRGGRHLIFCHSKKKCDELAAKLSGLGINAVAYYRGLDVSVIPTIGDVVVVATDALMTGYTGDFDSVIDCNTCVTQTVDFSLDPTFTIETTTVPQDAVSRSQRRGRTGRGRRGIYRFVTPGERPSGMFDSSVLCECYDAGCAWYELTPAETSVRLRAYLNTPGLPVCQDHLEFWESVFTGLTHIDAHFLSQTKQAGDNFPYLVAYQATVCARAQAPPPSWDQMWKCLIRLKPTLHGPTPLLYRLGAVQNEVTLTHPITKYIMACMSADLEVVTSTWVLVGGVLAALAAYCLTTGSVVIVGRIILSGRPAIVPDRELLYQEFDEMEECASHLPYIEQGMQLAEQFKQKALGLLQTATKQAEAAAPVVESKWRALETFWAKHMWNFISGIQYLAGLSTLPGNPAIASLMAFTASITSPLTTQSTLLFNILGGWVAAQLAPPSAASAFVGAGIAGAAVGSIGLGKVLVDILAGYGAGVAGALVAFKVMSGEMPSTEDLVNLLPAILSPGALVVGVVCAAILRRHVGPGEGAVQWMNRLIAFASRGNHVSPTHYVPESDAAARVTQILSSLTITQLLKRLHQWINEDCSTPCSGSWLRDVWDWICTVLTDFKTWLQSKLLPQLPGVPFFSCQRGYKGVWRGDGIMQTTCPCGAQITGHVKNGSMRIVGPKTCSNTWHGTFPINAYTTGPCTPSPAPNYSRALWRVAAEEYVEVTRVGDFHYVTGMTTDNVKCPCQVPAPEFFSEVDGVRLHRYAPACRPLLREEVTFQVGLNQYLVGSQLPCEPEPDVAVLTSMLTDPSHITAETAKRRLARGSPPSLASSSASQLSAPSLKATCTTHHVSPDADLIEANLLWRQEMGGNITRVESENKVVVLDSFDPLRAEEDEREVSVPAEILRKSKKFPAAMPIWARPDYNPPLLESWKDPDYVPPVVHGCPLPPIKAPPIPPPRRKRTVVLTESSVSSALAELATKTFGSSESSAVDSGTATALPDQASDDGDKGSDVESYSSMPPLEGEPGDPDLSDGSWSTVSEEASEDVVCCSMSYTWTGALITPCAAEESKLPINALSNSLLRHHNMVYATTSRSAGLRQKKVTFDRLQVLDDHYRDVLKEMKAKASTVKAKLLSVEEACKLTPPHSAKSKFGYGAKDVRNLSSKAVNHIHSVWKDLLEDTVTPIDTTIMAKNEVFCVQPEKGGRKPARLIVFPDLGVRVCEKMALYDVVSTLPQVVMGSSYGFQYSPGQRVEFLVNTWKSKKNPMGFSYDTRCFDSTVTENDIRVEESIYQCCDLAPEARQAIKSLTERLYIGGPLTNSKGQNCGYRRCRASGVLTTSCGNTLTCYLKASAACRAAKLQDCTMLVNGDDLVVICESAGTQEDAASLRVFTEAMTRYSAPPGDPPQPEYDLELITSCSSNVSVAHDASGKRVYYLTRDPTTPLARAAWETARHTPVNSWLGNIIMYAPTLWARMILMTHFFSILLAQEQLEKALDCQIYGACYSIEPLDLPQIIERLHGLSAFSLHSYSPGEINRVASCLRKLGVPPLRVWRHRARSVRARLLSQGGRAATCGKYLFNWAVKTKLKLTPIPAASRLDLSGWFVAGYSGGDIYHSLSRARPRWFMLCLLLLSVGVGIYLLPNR

For `Cc1cccc(NC(=O)[C@H](CCCCN)NC(=O)OCC2c3ccccc3-c3ccccc32)c1` [Compound 47, (S)-(5-AMINO-1-M-TOLYLCARBAMOYL-PENTYL)-CARBAMIC ACID 9H-FLUOREN-9-YLMETHYL ESTER], the IC50 was > 50 µM.

For the compound `Cc1ccc(NC(=O)C(CCCCN)NC(=O)CNCc2cccc(C)c2)cc1` [Compound 339, (S)-6-AMINO-2-[2-(3-METHYL-BENZYLAMINO)-ACETYLAMINO]-HEXANOIC ACID P-TOLYLAMIDE], the IC50 was > 50 µM.

With `NCCC[C@@H](NC(=O)Nc1ccc(-c2ccccc2)cc1)C(=O)Nc1ccc(C2CCCCC2)cc1` [Compound 201, (R)-5-AMINO-2-(3-BIPHENYL-4-YL-UREIDO)-PENTANOIC ACID (4-CYCLOHEXYL-PHENYL)-AMIDE], the IC50 is < 10 µM.

As for `NC(Cc1ccccc1)C(=O)Nc1ccc(CN(C(=O)c2ccco2)C2CCCCC2)cc1` (stereo in doubt) [Compound 11, (R)-FURAN-2-CARBOXYLIC ACID [4-(2-AMINO-3-PHENYL-PROPIONYLAMINO)-BENZYL]-CYCLOHEXYL-AMIDE], the IC50 is > 50 µM.

With `NCCCCN(CC(=O)Nc1cccc2[nH]ccc12)C(=O)Nc1ccc(OCc2ccccc2)cc1` [Compound 281, 2-[1-(4-AMINO-BUTYL)-3-(4-BENZYLOXY-PHENYL)-UREIDO]-NR-(1H-INDOL-4-YL)-ACETAMIDE], the IC50 is > 50 µM.

For `Cc1ccc(NC(=O)C(CCO)NC(=O)OCC2c3ccccc3-c3ccccc32)cc1` [Compound 374, (S)-(3-HYDROXY-1-P-TOLYLCARBAMOYL-PROPYL)-CARBAMIC ACID 9H-FLUOREN-9-YLMETHYL ESTER], the IC50 was > 50 µM.

In turn, `NCc1ccc(CNC(=O)[C@@H](NC(=O)OCC2c3ccccc3-c3ccccc32)c2ccccc2)cc1` [Compound 314, (S)-[(4-AMINOMETHYL-BENZYLCARBAMOYL)-PHENYL-METHYL]-CARBAMIC ACID 9H-FLUOREN-9-YLMETHYL ESTER] came in with an IC50 of 10 to 50 µM.

For the compound `NCCCC[C@H](NC(=O)Nc1ccc(OCc2ccccc2)cc1)C(=O)NC1CCCC1` [Compound 255, (S)-6-AMINO-2-[3-(4-BENZYLOXY-PHENYL)-UREIDO]-HEXANOIC ACID CYCLOPENTYLAMIDE], the IC50 fell in the range of 10 to 50 µM.

Regarding `CCCCOc1ccc(NC(=O)N[C@@H](CCCCN)C(=O)Nc2ccc(C)cc2)cc1` [Compound 244, (S)-6-AMINO-2-[3-(4-BUTOXY-PHENYL)-UREIDO]-HEXANOIC ACID P-TOLYLAMIDE], the half-inhibitory concentration (IC50) is > 50 µM.

Consider `NCCCC[C@H](NC(=O)Nc1ccc(OCc2ccccc2)cc1)C(=O)NCc1ccco1` [Compound 302, (S)-6-AMINO-2-[3-(4-BENZYLOXY-PHENYL)-UREIDO]-HEXANOIC ACID (FURAN-2-YLMETHYL)-AMIDE], for which the IC50 was > 50 µM.

For `Cc1ccc(NC(=O)C(CCCCN)NC(=O)OCc2ccccc2)cc1` [Compound 403, (S)-(5-AMINO-1-P-TOLYLCARBAMOYL-PENTYL)-CARBAMIC ACID BENZYL ESTER], the IC50 is > 50 µM.

Consider `Cc1ccc(NC(=O)[C@H](CCCCN)NC(=O)Nc2cccc3c2CCCC3)cc1` [Compound 78, (S)-6-AMINO-2-[3-(5,6,7,8-TETRAHYDRO-NAPHTHALEN-1-YL)-UREIDO]-HEXANOIC ACID P-TOLYLAMIDE], for which the IC50 is > 50 µM.

As for `COc1ccc(CNCC(=O)N[C@@H](CCCCN)C(=O)Nc2ccc(C)cc2)cc1` [Compound 343, (S)-6-AMINO-2-[2-(4-METHOXY-BENZYLAMINO)-ACETYLAMINO]-HEXANOIC ACID P-TOLYLAMIDE], the IC50 is > 50 µM.

For `Cc1ccc(NC(=O)[C@H](CCCCN)NC(=O)Nc2ccc(NCc3ccccc3)cc2)cc1` [Compound 224, (S)-6-AMINO-2-[3-(4-BENZYLAMINO-PHENYL)-UREIDO]-HEXANOIC ACID P-TOLYLAMIDE], the IC50 was 10 to 50 µM.

In the case of `Cc1ccc(NC(=O)[C@H](CCCCN)NC(=O)COc2ccc(Cl)cc2)cc1` [Compound 331, (S)-6-AMINO-2-[2-(4-CHLORO-PHENOXY)-ACETYLAMINO]-HEXANOIC ACID P-TOLYLAMIDE], the 50% inhibitory concentration (IC50) is > 50 µM.

`Cc1ccc(NC(=O)C(CCCCN)NC(=O)c2cccc3ccccc23)cc1` (stereo not shown) [Compound 79, NAPHTHALENE-1-CARBOXYLIC ACID (5-AMINO-1-P-TOLYLCARBAMOYL-PENTYL)-AMIDE]: the half-inhibitory concentration (IC50) was > 50 µM.

For the compound `CCCCOc1ccc(S(=O)(=O)N[C@@H](CCCCN)C(=O)Nc2ccc(C)cc2)cc1` [Compound 390, (S)-6-AMINO-2-(4-BUTOXY-BENZENESULFONYLAMINO)-HEXANOIC ACID P-TOLYLAMIDE], the IC50 was > 50 µM.

As for `NCCCC[C@H](N)C(=O)Nc1ccc(CN(C(=O)c2ccco2)C2CCCCC2)cc1` [Compound 7, (S)-FURAN-2-CARBOXYLIC ACID CYCLOHEXYL-[4-(2,6-DIAMINO-HEXANOYLAMINO)-BENZYL]-AMIDE], the concentration for half-maximal inhibition (IC50) was > 50 µM.

For the compound `Cc1ccc(NC(=O)C(Cc2cccnc2)NC(=O)OCC2c3ccccc3-c3ccccc32)cc1` [Compound 385, (S)-(2-PYRIDIN-3-YL-1-P-TOLYLCARBAMOYL-ETHYL)-CARBAMIC ACID 9H-FLUOREN-9-YLMETHYL ESTER], the concentration for half-maximal inhibition (IC50) is > 50 µM.

With `Cc1ccc(NC(=O)C(CCCCN)NC(=O)CNc2ccc(C(F)(F)F)cc2)cc1` [Compound 365, (S)-6-AMINO-2-[2-(4-TRIFLUOROMETHYL-PHENYLAMINO)-ACETYLAMINO]-HEXANOIC ACID P-TOLYLAMIDE], the concentration for half-maximal inhibition (IC50) is > 50 µM.

As for `NCCCC[C@H](NC(=O)OCC1c2ccccc2-c2ccccc21)C(=O)Nc1ccc(OCc2ccccc2)c(Cl)c1` [Compound 210, (S)-[5-AMINO-1-(4-BENZYLOXY-3-CHLORO-PHENYLCARBAMOYL)-PENTYL]-CARBAMIC ACID 9H-FLUOREN-9-YLMETHYL ESTER], the IC50 was < 10 µM.

On to `NCCCC[C@H](NC(=O)NCc1ccc(Cl)c(Cl)c1)C(=O)Nc1ccc(CN(C(=O)c2ccco2)C2CCCCC2)cc1` [Compound 154, (S)-FURAN-2-CARBOXYLIC ACID (4-{6-AMINO-2-[3-(3,4-DICHLORO-BENZYL)-UREIDO]-HEXANOYLAMINO}-BENZYL)-CYCLOHEXYL-AMIDE], for which the IC50 lay in the range of 10 to 50 µM.

The compound `NCCC[C@H](NC(=O)OCC1c2ccccc2-c2ccccc21)C(=O)Nc1ccc(CN(C(=O)c2ccco2)C2CCCCC2)cc1` [Compound 15, (S)-[4-AMINO-1-(4-{[CYCLOHEXYL-(FURAN-2-CARBONYL)-AMINO]-METHYL}-PHENYLCARBAMOYL)-BUTYL]-CARBAMIC ACID 9H-FLUOREN-9-YLMETHYL ESTER] gave an IC50 of 10 to 50 µM.

As for `Cc1ccc(NC(=O)C(CCCCN)NC(=O)Nc2ccc(CCc3ccccc3)cc2)cc1` [Compound 243, (S)-6-AMINO-2-[3-(4-PHENETHYL-PHENYL)-UREIDO]-HEXANOIC ACID P-TOLYLAMIDE], the IC50 was > 50 µM.

With `NCCCC[C@H](NC(=O)c1ccccc1)C(=O)Nc1ccc(CN(C(=O)c2ccco2)C2CCCCC2)cc1` [Compound 27, (S)-FURAN-2-CARBOXYLIC ACID [4-(6-AMINO-2-BENZOYLAMINO-HEXANOYLAMINO)-BENZYL]-CYCLOHEXYL-AMIDE], the IC50 was > 50 µM.

`O=CNCCCC[C@H](NC(=O)OCC1c2ccccc2-c2ccccc21)C(=O)Nc1ccc(Cl)c(Cl)c1` [Compound 217, (S)-[1-(3,4-DICHLORO-PHENYLCARBAMOYL)-5-FORMYLAMINO-PENTYL]-CARBAMIC ACID 9H-FLUOREN-9-YLMETHYL ESTER] came in with an IC50 of 10 to 50 µM.

The compound `NCCCCC(NC(=O)Cc1cccc2ccccc12)C(=O)Nc1ccc(CN(C(=O)c2ccco2)C2CCCCC2)cc1` (stereo in doubt) [Compound 25, (S)-FURAN-2-CARBOXYLIC ACID {4-[6-AMINO-2-(2-NAPHTHALEN-1-YL-ACETYLAMINO)-HEXANOYLAMINO]-BENZYL}-CYCLOHEXYL-AMIDE] showed an IC50 of 10 to 50 µM.

Take `Cc1ccc(NC(=O)C(CCCCN)NS(=O)(=O)c2ccc(C(F)(F)F)cc2)cc1` [Compound 397, (S)-6-AMINO-2-(4-TRIFLUOROMETHYL-BENZENESULFONYLAMINO)-HEXANOIC ACID P-TOLYLAMIDE]: the IC50 was > 50 µM.

With `NCCCC[C@H](NC(=O)Nc1ccc(OCc2ccccc2)cc1)C(=O)Nc1nc2ccccc2s1` [Compound 303, (S)-6-AMINO-2-[3-(4-BENZYLOXY-PHENYL)-UREIDO]-HEXANOIC ACID BENZOTHIAZOL-2-YLAMIDE], the half-maximal inhibitory concentration (IC50) is > 50 µM.

Turning to `NCCC[C@@H](NC(=O)Nc1ccc2c(c1)Cc1ccccc1-2)C(=O)Nc1ccc(C2CCCCC2)cc1` [Compound 203, (R)-5-AMINO-2-[3-(9H-FLUOREN-2-YL)-UREIDO]-PENTANOIC ACID (4-CYCLOHEXYL-PHENYL)-AMIDE], the IC50 is < 10 µM.

With `COc1ccc(S(=O)(=O)N[C@@H](CCCCN)C(=O)Nc2ccc(C)cc2)cc1OC` [Compound 386, (S)-6-AMINO-2-(3,4-DIMETHOXY-BENZENESULFONYLAMINO)-HEXANOIC ACID P-TOLYLAMIDE], the IC50 is > 50 µM.

For `Cc1ccc(NC(=O)[C@H](CCCCN)NS(=O)(=O)c2ccsc2)cc1` [Compound 399, (S)-6-AMINO-2-(THIOPHENE-3-SULFONYLAMINO)-HEXANOIC ACID P-TOLYLAMIDE], the half-inhibitory concentration (IC50) was > 50 µM.

As to `Cc1ccc(NC(=O)C(CN)NC(=O)OCC2c3ccccc3-c3ccccc32)cc1` [Compound 401, (R)-(2-AMINO-1-P-TOLYLCARBAMOYL-ETHYL)-CARBAMIC ACID 9H-FLUOREN-9-YLMETHYL ESTER], the half-maximal inhibitory concentration (IC50) is > 50 µM.

Consider `O=C(CC1CNCCN1C(=O)Nc1ccc2c(c1)Cc1ccccc1-2)Nc1ccc(C2CCCCC2)cc1` (stereo not shown) [Compound 162, 2-[(4-CYCLOHEXYL-PHENYLCARBAMOYL)-METHYL]-PIPERAZINE-1-CARBOXYLIC ACID (9H-FLUOREN-2-YL)-AMIDE], for which the 50% inhibitory concentration (IC50) is 10 to 50 µM.

With `Cc1ccc(NC(=O)C(CCCCN)NC(=O)OCC2c3ccccc3-c3ccccc32)cc1` [Compound 36, (R)-(5-AMINO-1-P-TOLYLCARBAMOYL-PENTYL)-CARBAMIC ACID 9H-FLUOREN-9-YLMETHYL ESTER], the IC50 lay within 10 to 50 µM.

`Cc1ccc(NC(=O)[C@H](CCCCN)NC(=O)Nc2ccc(OCc3ccc([N+](=O)[O-])cc3)cc2)cc1` [Compound 196, (S)-6-AMINO-2-{3-[4-(4-NITRO-BENZYLOXY)-PHENYL]-UREIDO}-HEXANOIC ACID P-TOLYLAMIDE] gave a half-inhibitory concentration (IC50) of 10 to 50 µM.

Turning to `NCCCC[C@H](NC(=O)OCC1c2ccccc2-c2ccccc21)C(=O)Nc1cccc(OCc2ccccc2)c1` [Compound 211, (S)-[5-AMINO-1-(3-BENZYLOXY-PHENYLCARBAMOYL)-PENTYL]-CARBAMIC ACID 9H-FLUOREN-9-YLMETHYL ESTER], the IC50 lay in the range of 10 to 50 µM.
